Measured values as given in ChEMBL document CHEMBL4725372, “Rational Design of Suprastat: A Novel Selective Histone Deacetylase 6 Inhibitor with the Ability to Potentiate Immunotherapy in Melanoma Models” (J Med Chem, 2020).
The source made the active and inactive calls. The calls are words filed in the database; no cut-off is given here.

What was measured:
Mus musculus [1] = assay: Immunomodulatory activity in C57BL/6 mouse harboring mouse SM1 cells assessed as effect on CD4+ T cells at 25 mg/kg, ip dosed 5 days per week by flow cytometry; assay type: functional, organism-based; conditions: time 5.0 day/week
Mus musculus [2] = assay: Immunomodulatory activity in C57BL/6 mouse harboring mouse SM1 cells assessed as increase in CD8+ effector T-cells and effector memory cells at 25 mg/kg, ip dosed 5 days per week before starting 15 mg/kg, ip anti-PD1 immune checkpoint blockade therapy by flow cytometry; assay type: functional, organism-based; conditions: time 5.0 day/week
Histone deacetylase 11 = biological target: T1, Histone deacetylase 11 (Homo sapiens, UniProt Q96DB2); assay: Inhibition of human HDAC11 expressed in HEK293/T17 cells pre-incubated for 10 mins before […] addition and measured after 30 mins by fluorescence-based assay; assay type: cell-based
T1 sequence (Q96DB2 whole entry): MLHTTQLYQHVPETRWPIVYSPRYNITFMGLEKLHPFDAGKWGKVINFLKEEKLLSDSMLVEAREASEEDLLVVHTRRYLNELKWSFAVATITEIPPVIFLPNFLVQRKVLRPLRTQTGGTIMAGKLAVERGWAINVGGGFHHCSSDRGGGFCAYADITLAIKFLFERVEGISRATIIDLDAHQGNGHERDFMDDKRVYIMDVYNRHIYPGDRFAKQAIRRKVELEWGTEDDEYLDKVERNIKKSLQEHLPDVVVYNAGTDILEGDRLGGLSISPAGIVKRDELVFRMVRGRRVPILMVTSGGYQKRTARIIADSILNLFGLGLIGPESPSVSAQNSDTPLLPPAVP

Mus musculus [3] = assay: Immunomodulatory activity in C57BL/6 mouse harboring mouse SM1 cells assessed as increase in CD8+ central memory cells at 25 mg/kg, ip dosed 5 days per week before starting 15 mg/kg, ip anti-PD1 immune checkpoint blockade therapy by flow cytometry; assay type: functional, organism-based; conditions: time 5.0 day/week
Mus musculus [4] = assay: Immunomodulatory activity in C57BL/6 mouse harboring mouse SM1 cells assessed as reduction in F4/80+ CD206+ pro-tumor M2 macrophages at 25 mg/kg, ip dosed 5 days per week by flow cytometry; assay type: functional, organism-based; conditions: time 5.0 day/week
[5] = biological target: Histone deacetylase (Homo sapiens) (UniProt Q13547+O15379+Q9UBN7+Q92769+Q9UQL6+Q8WUI4+Q9BY41+Q96DB2+P56524+Q9UKV0+Q969S8); assay: Inhibition of human HDAC in human WM164 cells increase in acetylated histone H3 levels at 0.1 to 10 uM by immunoblot analysis; assay type: cell-based; conditions: dose microM 0.1-10
Mus musculus [6] = assay: Immunomodulatory activity in C57BL/6 mouse harboring mouse SM1 cells assessed as increase in CD8+ central memory cells at 25 mg/kg, ip dosed 5 days per week by flow cytometry; assay type: functional, organism-based; conditions: time 5.0 day/week
Mus musculus [7] = assay: Immunomodulatory activity in C57BL/6 mouse harboring mouse SM1 cells assessed as effect on immunosuppressive T-regs at 25 mg/kg, ip dosed 5 days per week before starting 15 mg/kg, ip anti-PD1 immune checkpoint blockade therapy by flow cytometry; assay type: functional, organism-based; conditions: time 5.0 day/week
Mus musculus [8] = assay: Immunomodulatory activity in C57BL/6 mouse harboring mouse SM1 cells assessed as reduction in natural killer T cells at 25 mg/kg, ip dosed 5 days per week before starting 15 mg/kg, ip anti-PD1 immune checkpoint blockade therapy by flow cytometry; assay type: functional, organism-based; conditions: time 5.0 day/week
[9] = Half life in PBS by LC-MS/MS analysis; assay type: physicochemical
Mus musculus [10] = assay: Immunomodulatory activity in C57BL/6 mouse harboring mouse SM1 cells assessed as reduction in natural killer T cells at 25 mg/kg, ip dosed 5 days per week before by flow cytometry; assay type: functional, organism-based; conditions: time 5.0 day/week
HEK293 [11] = assay: Selectivity index, ratio of IC50 for human HDAC1 expressed in HEK293/T17 cells (unknown origin) to human HDAC6 expressed in HEK293/T17 cells; assay type: cell-based
HEK293 [12] = assay: Selectivity index, ratio of IC50 for human HDAC9 expressed in HEK293/T17 cells (unknown origin) to human HDAC6 expressed in HEK293/T17 cells; assay type: cell-based
SM1 = assay: Antitumor activity against mouse SM1 cells transplanted in C57BL/6 mouse assessed as decrease in tumor burden at 25 mg/kg, ip dosed 5 days per week before starting 15 mg/kg, ip anti-PD1 immune checkpoint blockade therapy; assay type: functional, organism-based; conditions: time 5.0 day/week
Mus musculus [13] = assay: Immunomodulatory activity in C57BL/6 mouse harboring mouse SM1 cells assessed as increase in M1/M2 macrophages ratio at 25 mg/kg, ip dosed 5 days per week before starting 15 mg/kg, ip anti-PD1 immune checkpoint blockade therapy by flow cytometry; assay type: functional, organism-based; conditions: time 5.0 day/week
[14] = biological target: T2, Protein deacetylase HDAC6 (Mus musculus) (UniProt Q9Z2V5); assay: Inhibition of human HDAC6 in mouse RAW264.7 cells assessed as increase in acetylated alpha-tubulin levels at 1 to 10 uM by immunoblot analysis; assay type: cell-based; conditions: Macrophage, dose microM 1-10
T2 sequence (whole entry): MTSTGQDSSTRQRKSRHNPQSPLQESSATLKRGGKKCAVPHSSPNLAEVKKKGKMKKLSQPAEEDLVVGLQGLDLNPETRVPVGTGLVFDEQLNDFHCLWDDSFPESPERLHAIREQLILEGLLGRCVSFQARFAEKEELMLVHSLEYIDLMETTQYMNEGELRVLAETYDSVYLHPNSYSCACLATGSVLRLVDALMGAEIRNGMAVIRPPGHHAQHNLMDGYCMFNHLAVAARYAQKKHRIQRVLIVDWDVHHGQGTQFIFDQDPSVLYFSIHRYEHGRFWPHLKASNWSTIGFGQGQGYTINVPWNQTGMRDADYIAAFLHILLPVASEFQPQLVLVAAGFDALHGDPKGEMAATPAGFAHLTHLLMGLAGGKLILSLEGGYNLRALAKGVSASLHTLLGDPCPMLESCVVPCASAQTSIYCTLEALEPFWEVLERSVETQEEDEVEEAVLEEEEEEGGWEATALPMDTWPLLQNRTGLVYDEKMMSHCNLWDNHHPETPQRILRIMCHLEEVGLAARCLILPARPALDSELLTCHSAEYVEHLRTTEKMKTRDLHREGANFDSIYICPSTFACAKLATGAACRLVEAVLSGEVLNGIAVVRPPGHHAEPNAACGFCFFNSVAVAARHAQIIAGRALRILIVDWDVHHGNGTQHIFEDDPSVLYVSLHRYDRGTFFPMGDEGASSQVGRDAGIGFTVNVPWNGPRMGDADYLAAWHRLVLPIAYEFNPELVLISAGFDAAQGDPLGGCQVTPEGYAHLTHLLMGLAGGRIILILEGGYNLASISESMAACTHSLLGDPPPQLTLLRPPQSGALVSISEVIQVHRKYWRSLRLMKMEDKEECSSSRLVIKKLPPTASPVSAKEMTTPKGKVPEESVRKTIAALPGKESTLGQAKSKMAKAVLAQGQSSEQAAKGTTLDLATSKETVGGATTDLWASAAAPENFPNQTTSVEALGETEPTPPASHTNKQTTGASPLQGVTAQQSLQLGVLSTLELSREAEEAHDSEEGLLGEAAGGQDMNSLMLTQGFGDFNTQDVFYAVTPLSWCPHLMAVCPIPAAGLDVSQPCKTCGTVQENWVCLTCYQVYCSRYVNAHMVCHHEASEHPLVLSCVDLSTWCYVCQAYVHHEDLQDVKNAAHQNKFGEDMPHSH

## NCc1ccc(NC(=O)N(CCCCO)Cc2ccc(C(=O)NO)cc2)cc1
Mus musculus [1]
  Activity: inactive
Mus musculus [2]
  Activity: Active
Histone deacetylase 11
  IC50: > 50 µM
Mus musculus [3]
  Activity: Active
Mus musculus [4]
  Activity: Active
[5]
  inhibition: Active
Mus musculus [6]
  Activity: Active
Mus musculus [7]
  Activity: inactive
Mus musculus [8]
  Activity: Active
[9]
  half-life: > 24 h
Mus musculus [10]
  Activity: Active
HEK293 [11]
  Ratio IC50: 293
HEK293 [12]
  Ratio IC50: 15700
SM1
  TGI: Active
Mus musculus [13]
  Activity: Active
[14]
  inhibition: Dose-dependent effect
